PubChem BioAssay (NCI)
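Dose response: 5 concentrations. Exposure: 48 h. Format: 96-well plates. Endpoint: linear interpolation; highest concentration if not reached. The concentration for 50% growth inhibition is given as GI50. TGI marks complete inhibition of growth.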

Assays:
Test in all cases: growth of human tumour cells (NCI), 48 h
[1] = test system: OVCAR-5 ovarian
[2] = test system: IGROV1 ovarian
[3] = test system: SK-MEL-28 melanoma
[4] = test system: EKVX NSCLC
[5] = test system: SR leukemia
[6] = test system: A498 renal
[7] = test system: SK-MEL-2 melanoma
[8] = test system: SF-539 CNS
[9] = test system: SK-MEL-5 melanoma
[10] = test system: CCRF-CEM leukemia
[11] = test system: DU-145 prostate
[12] = test system: COLO 205 colon
[13] = test system: HCC-2998 colon
[14] = test system: MALME-3M melanoma
[15] = test system: T-47D breast
[16] = test system: NCI-H23 lung
[17] = test system: OVCAR-4 ovarian
[18] = test system: MOLT-4 leukemia
[19] = test system: HS 578T breast
[20] = test system: 786-0 renal
[21] = test system: SW-620 colon
[22] = test system: SK-OV-3 ovarian
[23] = test system: OVCAR-3 ovarian
[24] = test system: SNB-19 CNS
[25] = test system: SN12C renal
[26] = test system: HOP-92 NSCLC
[27] = test system: SF-295 CNS
[28] = test system: RPMI-8226 leukemia
[29] = test system: UACC-62 melanoma
[30] = test system: OVCAR-8 ovarian
[31] = test system: CAKI-1 renal
[32] = test system: MDA-MB-231 breast
[33] = test system: M14 melanoma
[34] = test system: HL-60(TB) leukemia
[35] = test system: HT29 colon
[36] = test system: K-562 leukemia
[37] = test system: NCI-H522 lung
[38] = test system: NCI-H226 lung
[39] = test system: UO-31 renal
[40] = test system: HOP-62 NSCLC
[41] = test system: KM12 colon
[42] = test system: RXF 393 renal
[43] = test system: ACHN renal
[44] = test system: PC-3 prostate
[45] = test system: BT-549 breast
[46] = test system: MDA-MB-435
[47] = test system: HCT-116 colon
[48] = test system: U251 CNS
[49] = test system: LOX IMVI melanoma
[50] = test system: NCI-H460 lung
[51] = test system: MCF7 breast
[52] = test system: SF-268 CNS
[53] = test system: UACC-257 melanoma
[54] = test system: NCI/ADR-RES ovarian
[55] = test system: TK-10 renal
[56] = test system: SNB-75 CNS
[57] = test system: A549 NSCLC
[58] = test system: HCT-15 colon

For `CC(C)C(=O)Nc1ccc(-c2nc(-c3cccc(O)c3)c(-c3ccnc(Br)c3)[nH]2)cc1`, the GI50 [1] was 2360 nM, the TGI [1] was 59100 nM and the GI50 [2] was 962 nM. The TGI [2] was 5830 nM, the GI50 [3] was 1750 nM and the TGI [3] was 23500 nM. For the same compound, the GI50 [4] was 1840 nM, the TGI [4] was 25600 nM and the GI50 [5] was 1190 nM. The TGI [5] was greater than 100000 nM, the GI50 [6] was 957 nM and the TGI [6] was 5550 nM. The GI50 [7] was 1640 nM, the TGI [7] was 9810 nM and the GI50 [8] was 685 nM. For the same compound, the TGI [8] was 2890 nM, the GI50 [9] was 1100 nM and the TGI [9] was 3240 nM. The GI50 [10] was 653 nM, the TGI [10] was greater than 100000 nM and the GI50 [11] was 2540 nM. For the same compound, the TGI [11] was 41300 nM, the GI50 [12] was 1470 nM and the TGI [12] was 6940 nM. For the same compound, the GI50 [13] was 1380 nM, the TGI [13] was 6710 nM and the GI50 [14] was 919 nM. It also gave a TGI [14] of 4900 nM, a GI50 [15] of 1090 nM and a TGI [15] of 9590 nM. For the same compound, the GI50 [16] was 1190 nM, the TGI [16] was 12900 nM and the GI50 [17] was 2850 nM. For the same compound, the TGI [17] was 27700 nM, the GI50 [18] was 835 nM and the TGI [18] was 7980 nM. The GI50 [19] was 592 nM, the TGI [19] was 2320 nM and the GI50 [20] was 718 nM. The TGI [20] was 7630 nM, the GI50 [21] was 1400 nM and the TGI [21] was 16200 nM. The GI50 [22] was 1890 nM, the TGI [22] was 10600 nM and the GI50 [23] was 1090 nM. It also gave a TGI [23] of 6600 nM, a GI50 [24] of 1470 nM and a TGI [24] of 61200 nM. For the same compound, the GI50 [25] was 1490 nM, the TGI [25] was 34800 nM and the GI50 [26] was 2170 nM. For the same compound, the TGI [26] was 7270 nM, the GI50 [27] was 204 nM and the TGI [27] was 457 nM. It also gave a GI50 [28] of 830 nM, a TGI [28] of 2430 nM and a GI50 [29] of 758 nM. The TGI [29] was 5370 nM, the GI50 [30] was 1280 nM and the TGI [30] was 18600 nM. For the same compound, the GI50 [31] was 932 nM, the TGI [31] was 9120 nM and the GI50 [32] was 1610 nM. For the same compound, the TGI [32] was 36300 nM, the GI50 [33] was 764 nM and the TGI [33] was 8130 nM. It also gave a GI50 [34] of 768 nM, a TGI [34] of 2740 nM and a GI50 [35] of 1400 nM. The TGI [35] was greater than 60100 nM, the GI50 [36] was 601 nM and the TGI [36] was greater than 100000 nM. It also gave a GI50 [37] of 1240 nM, a TGI [37] of 9030 nM and a GI50 [38] of 1780 nM. It also gave a TGI [38] of 8950 nM, a GI50 [39] of 1040 nM and a TGI [39] of 4590 nM. The GI50 [40] was 1820 nM, the TGI [40] was 35200 nM and the GI50 [41] was 1290 nM. It also gave a TGI [41] of 21700 nM, a GI50 [42] of 370 nM and a TGI [42] of 1320 nM. It also gave a GI50 [43] of 1700 nM, a TGI [43] of 26600 nM and a GI50 [44] of 877 nM. It also gave a TGI [44] of 8210 nM, a GI50 [45] of 1090 nM and a TGI [45] of 7250 nM. The GI50 [46] was 4240 nM, the TGI [46] was 20600 nM and the GI50 [47] was 905 nM. It also gave a TGI [47] of 7680 nM, a GI50 [48] of 1100 nM and a TGI [48] of 47900 nM. The GI50 [49] was 404 nM, the TGI [49] was 5710 nM and the GI50 [50] was 1450 nM. It also gave a TGI [50] of 9010 nM, a GI50 [51] of 566 nM and a TGI [51] of 4510 nM. For the same compound, the GI50 [52] was 2830 nM, the TGI [52] was 40000 nM and the GI50 [53] was 3470 nM. It also gave a TGI [53] of 24200 nM, a GI50 [54] of 18000 nM and a TGI [54] greater than 100000 nM. It also gave a GI50 [55] of 5880 nM, a TGI [55] of 36800 nM and a GI50 [56] of 529 nM. For the same compound, the TGI [56] was 2600 nM, the GI50 [57] was 1640 nM and the TGI [57] was 23600 nM. It also gave a GI50 [58] of 1260 nM and a TGI [58] of 9760 nM.
